Reference: patent US11384063B2, “Modulators of estrogen receptor proteolysis and associated methods of use” (Arvinas Operations, Inc., priority 2017, dated 2022)
pIC50: −log10 of the molar value.

target: T1, ERα (Homo sapiens, UniProt P03372); experiment: ERE luciferase reporter gene assay in T47D-KBluc cells (target engagement); assay type: cell-based; parameters: T47D human breast cancer cells stably transfected with estrogen responsive element/promoter/luciferase reporter gene; host or cells: T47D-KBluc cells; details: 10% FBS, 24 hours, Table 1 cereblon centric PROTACs, read-out: ER-α Luciferase IC50
T1 sequence (P03372 1-595): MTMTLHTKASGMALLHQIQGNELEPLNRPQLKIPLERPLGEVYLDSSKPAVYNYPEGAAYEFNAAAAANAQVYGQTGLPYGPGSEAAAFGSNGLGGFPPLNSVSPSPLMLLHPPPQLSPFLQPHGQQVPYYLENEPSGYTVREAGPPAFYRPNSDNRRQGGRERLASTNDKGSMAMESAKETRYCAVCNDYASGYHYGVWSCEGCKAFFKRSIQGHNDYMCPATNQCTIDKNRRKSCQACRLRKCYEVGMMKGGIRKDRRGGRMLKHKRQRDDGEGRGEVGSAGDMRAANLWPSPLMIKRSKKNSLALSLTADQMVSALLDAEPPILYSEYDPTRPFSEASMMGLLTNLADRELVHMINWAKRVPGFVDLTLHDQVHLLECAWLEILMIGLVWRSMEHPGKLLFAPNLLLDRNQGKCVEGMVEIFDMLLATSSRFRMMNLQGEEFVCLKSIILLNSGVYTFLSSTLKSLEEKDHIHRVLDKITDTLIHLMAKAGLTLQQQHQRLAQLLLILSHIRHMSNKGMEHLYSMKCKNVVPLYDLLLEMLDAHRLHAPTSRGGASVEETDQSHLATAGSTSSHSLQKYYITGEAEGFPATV
In short: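 PROTACs were tested at 12 concentrations from 300 nM down to 2 pM in 3-fold steps for 24 h on T47D-KBluc cells with a stable ERE-driven luciferase. Medium was RPMI with 10% FBS, measured at 10 pM estrogen. IC50 came from luminescence after lysis, in duplicate.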

SMILES | pIC50
C[C@@H](COc1ccc(Oc2c(-c3ccc(Br)cc3)sc3cc(O)ccc23)cc1)N1CCN(CCOc2cccc3c2CN(C2CCC(=O)NC2=O)C3=O)CC1 (stereo partly shown) [Compound 15] | 8.77
O=C1CC[C@H](N2Cc3cc(OCCOC4CCN(CCOc5ccc(Oc6c(-c7ccc(Br)cc7)sc7cc(O)ccc67)cc5)CC4)ccc3C2=O)C(=O)N1 [Compound 44] | 9.27
O=C1CCC(N2C(=O)c3ccc(OCCCOCCOc4ccc(Oc5c(-c6ccc(Br)cc6)sc6cc(O)ccc56)cc4)cc3C2=O)C(=O)N1 (stereo not shown) [Compound 76] | 7.77
CC(COc1ccc(Oc2c(-c3ccc(Br)cc3)sc3cc(O)ccc23)cc1)N1CCN(CCCCc2ccc3c(c2)CN(C2CCC(=O)NC2=O)C3=O)CC1 (stereo not shown) [Compound 53] | 9.22
O=C1CCC(N2C(=O)c3cccc(NCCN4CCN(CCOc5ccc(Oc6c(-c7ccc(Br)cc7)sc7cc(O)ccc67)cc5)CC4)c3C2=O)C(=O)N1 (stereo not shown) [Compound 6] | 8.89
O=C1CCC(N2Cc3cc(OCCCN4CCN(CCOc5ccc(Oc6c(-c7ccc(Br)cc7)sc7cc(O)ccc67)cc5)CC4)ccc3C2=O)C(=O)N1 (stereo not shown) [Compound 34] | 9.00
O=C1CCC(N2Cc3c(OCCN4CC5(CN(CCOc6ccc(Oc7c(-c8ccc(Br)cc8)sc8cc(O)ccc78)cc6)C5)C4)cccc3C2=O)C(=O)N1 (stereo not shown) [Compound 37] | 8.38
O=C1CCC(N2Cc3cc(OCCN4CCN(CCOc5ccc(Oc6c(-c7ccc(Br)cc7)sc7cc(O)ccc67)cc5)CC4)ccc3C2=O)C(=O)N1 (stereo not shown) [Compound 30] | 8.89
C[C@H](COc1ccc(Oc2c(-c3ccc(Br)cc3)sc3cc(O)ccc23)cc1)N1CCN(CCOc2cccc3c2CN(C2CCC(=O)NC2=O)C3=O)CC1 (stereo partly shown) [Compound 13] | 8.89
O=C1CCC(N2C(=O)c3ccc(NCCCOCCOc4ccc(Oc5c(-c6ccc(Br)cc6)sc6cc(O)ccc56)cc4)cc3C2=O)C(=O)N1 (stereo not shown) [Compound 81] | 8.08
O=C1CCC(N2Cc3c(OCCOCCOCCOc4ccc(Oc5c(-c6ccc(Br)cc6)sc6cc(O)ccc56)cc4)cccc3C2=O)C(=O)N1 (stereo not shown) [Compound 19] | 8.05
O=C1CCC(N2C(=O)c3ccc(OCCOCCOc4ccc(Oc5c(-c6ccc(Br)cc6)sc6cc(O)ccc56)cc4)cc3C2=O)C(=O)N1 (stereo not shown) [Compound 66] | 8.24

Continued, values first:

pIC50 | SMILES
8.06 | Cc1nc2c(OCCN3CCN(CCOc4ccc(Oc5c(-c6ccc(Br)cc6)sc6cc(O)ccc56)cc4)CC3)cccc2c(=O)n1C1CCC(=O)NC1=O (stereo not shown) [Compound 16]
9.09 | O=C(CC1CCN(CCOc2ccc(Oc3c(-c4ccc(Br)cc4)sc4cc(O)ccc34)cc2)CC1)NCc1ccc2c(c1)CN(C1CCC(=O)NC1=O)C2=O (stereo not shown) [Compound 63]
9.28 | O=C1CC[C@H](N2Cc3cc(OCCN4C[C@@H]5C[C@H]4CN5CCOc4ccc(Oc5c(-c6ccc(Br)cc6)sc6cc(O)ccc56)cc4)ccc3C2=O)C(=O)N1 [Compound 42]
8.96 | O=C1CC[C@@H](N2Cc3cc(OCCN4C[C@H]5C[C@@H]4CN5CCOc4ccc(Oc5c(-c6ccc(Br)cc6)sc6cc(O)ccc56)cc4)ccc3C2=O)C(=O)N1 [Compound 38]
10.05 | O=C1CCC(N2Cc3c(NCCN4CCN(CCOc5ccc(Oc6c(-c7ccc(O)cc7)sc7cc(O)ccc67)cc5)CC4)cccc3C2=O)C(=O)N1 (stereo not shown) [Compound 4]
8.60 | C[C@@H](COc1ccc(Oc2c(-c3ccc(Br)cc3)sc3cc(O)ccc23)cc1)N1CCN(CC(=O)NCc2ccc3c(c2)CN(C2CCC(=O)NC2=O)C3=O)CC1 (stereo partly shown) [Compound 12]
7.75 | O=C1CCC(N2C(=O)c3ccc(N4CCN(CCCOc5ccc(Oc6c(-c7ccc(Br)cc7)sc7cc(O)ccc67)cc5)CC4)cc3C2=O)C(=O)N1 (stereo not shown) [Compound 49]

same assay, conditions: 10% FBS, 24 hours, Table 2 VHL centric PROTACs, read-out: IC50

SMILES | pIC50
Cc1ncsc1-c1ccc(CNC(=O)[C@@H]2C[C@@H](O)CN2C(=O)[C@@H](NC(=O)CCCOC2CCN(CCOc3ccc(Oc4c(-c5ccc(F)cc5)sc5cc(O)ccc45)cc3)CC2)C(C)(C)C)cc1 [Compound 137] | 7.06
Cc1ncsc1-c1ccc(CNC(=O)[C@H]2C[C@H](O)CN2C(=O)[C@@H](NC(=O)COCCN2CCN(CCOc3ccc(Oc4c(-c5ccc(Br)cc5)sc5cc(O)ccc45)cc3)CC2)C(C)(C)C)cc1 [Compound 152] | < 7.00
C[C@H](NC(=O)[C@@H]1C[C@@H](O)CN1C(=O)[C@@H](NC(=O)COCCOCCOCCOc1ccc(Oc2c(-c3ccc(F)cc3)sc3cc(O)ccc23)cc1)C(C)(C)C)c1ccc(C#N)cc1 [Compound 132] | 8.89
C[C@H](NC(=O)[C@@H]1C[C@@H](O)CN1C(=O)[C@@H](NC(=O)COCCOCCN1CCC(c2ccc(Oc3c(-c4ccc(F)cc4)sc4cc(O)ccc34)cc2)CC1)C(C)(C)C)c1ccc(Cl)cc1 [Compound 148] | < 7.00
COc1ccc2c(Oc3ccc(OCCN4CCN(CCOCC(=O)N[C@H](C(=O)N5CC(=O)C[C@H]5C(=O)NCc5ccc(-c6scnc6C)cc5)C(C)(C)C)CC4)cc3)c(-c3ccc(Br)cc3)sc2c1 [Compound 159] | < 7.00

same assay, conditions: 10% FBS, 24 hours, Table 3 cereblon centric PROTACs, read-out: ER-α Luciferase IC50

SMILES | pIC50
O=C1CCC(N2Cc3cc(NCCCOCCCOCCCOc4ccc(Oc5c(-c6ccc(Br)cc6)sc6cc(O)ccc56)cc4)ccc3C2=O)C(=O)N1 (stereo not shown) [Compound 170] | 8.25
O=C1CCC(N2C(=O)c3ccc(N4CCC(N5CC(Oc6ccc(Oc7c(-c8ccc(Br)cc8)sc8cc(O)ccc78)cc6)C5)CC4)cc3C2=O)C(=O)N1 (stereo not shown) [Compound 212] | 7.82
O=C1CCC(N2Cc3cc(N4CCN(CC5CCN(CCOc6ccc(Oc7c(-c8ccc(C(F)(F)F)cc8)sc8cc(O)ccc78)cc6)CC5)CC4)c(F)cc3C2=O)C(=O)N1 (stereo not shown) [Compound 204] | 7.79
O=C1CCC(N2Cc3cc(C4CCN(C5CCN(CCOc6ccc(Oc7c(-c8ccc(Br)cc8)sc8cc(O)ccc78)cc6)CC5)CC4)ccc3C2=O)C(=O)N1 (stereo not shown) [Compound 196] | 8.07
O=C1CCC(N2Cc3cc(N4CCC(CN5CCC(Oc6ccc(Oc7c(-c8ccc(C(F)(F)F)cc8)sc8cc(O)ccc78)cc6)CC5)CC4)ccc3C2=O)C(=O)N1 (stereo not shown) [Compound 187] | 8.29
O=C1CCC(N2Cc3nc(N4CCN(CC5CCN(c6c(F)cc(Oc7c(-c8ccc(Br)cc8)sc8cc(O)ccc78)cc6F)CC5)CC4)ccc3C2=O)C(=O)N1 (stereo not shown) [Compound 242] | 7.73
O=C1CCC(N2Cc3cc(NCCCOCCOCCOc4ccc(Oc5c(-c6ccc(Br)cc6)sc6cc(O)ccc56)cc4)ccc3C2=O)C(=O)N1 (stereo not shown) [Compound 171] | 8.06
O=C1CCC(N2Cc3c(cc(F)c(N4CCN(C5CC6(C5)CN(CCOc5ccc(Oc7c(-c8ccc(C(F)(F)F)cc8)sc8cc(O)ccc78)cc5)C6)CC4)c3F)C2=O)C(=O)N1 (stereo not shown) [Compound 206] | 7.88

Second part, the compound after the results:

pIC50 | SMILES
8.08 | O=C1CCC(N2Cc3cc(N4CCN(CC5CCN(CCOc6ccc(Oc7c(-c8ccc(C(F)(F)F)cc8)sc8cc(O)ccc78)cc6)CC5)CC4)ccc3C2=O)C(=O)N1 (stereo not shown) [Compound 200]
7.80 | O=C1CCC(N2C(=O)c3ccc(NCCCOCCCOCCOc4ccc(Oc5c(-c6ccc(Br)cc6)sc6cc(O)ccc56)cc4)cc3C2=O)C(=O)N1 (stereo not shown) [Compound 172]
< 6.52 | O=C1CCC(N2C(=O)c3ccc(N4CCN(CCC5CN(CCOc6ccc(Oc7c(-c8ccc(Br)cc8)sc8cc(O)ccc78)cc6)C5)CC4)cc3C2=O)C(=O)N1 (stereo not shown) [Compound 186]
7.83 | O=C1CCC(N2C(=O)c3ccc(N4CCN(CC5CCN(CCOc6ccc(Oc7c(-c8ccc(C(F)(F)F)cc8)sc8cc(O)ccc78)cc6)CC5)CC4)cc3C2=O)C(=O)N1 (stereo not shown) [Compound 202]
8.10 | O=C1CCC(N2Cc3cc(NCCCOCCCOCCCCOc4ccc(Oc5c(-c6ccc(Br)cc6)sc6cc(O)ccc56)cc4)ccc3C2=O)C(=O)N1 (stereo not shown) [Compound 173]
